# According to ChEMBL document CHEMBL5608113, “Targeting of CAF-induced therapy resistance in CRC organoid-stroma co-cultures” (2024):
# Where “and” joins values, the source holds several entries; their conditions need not be identical. Identical values can stand only once. Square brackets hold non-standard residues; d marks the D form. Peptide text beside a SMILES is read from it. Arg(Me) = CNC(=N)NCCC[C@H](N)C(=O)O; d4Pal = N[C@H](Cc1ccncc1)C(=O)O; azaGly = NNC(=O)O
# Columns and labels:
# Format in all cases: functional, Homo sapiens
# Conditions in all cases: for viability at 10 µM / viability at 1 µM: Homo sapiens, read-out: Cell Viability; for viability at 1 µM: Concentration 1 uM
# Colon cancer organoid [1] = assay: Targeting of F14 CAF-induced therapy resistance in O14 CRC organoid-stroma co-culture. Cell viability is reported without Gefitinib.
# Colon cancer organoid [2] = assay: Targeting of F14 CAF-induced therapy resistance in O14 CRC organoid-stroma co-culture. Cell viability is reported with Gefitinib.
# Colon cancer organoid [3] = assay: Targeting of F14 CAF-induced therapy resistance in O23 CRC organoid-stroma co-culture. Cell viability is reported without Gefitinib.
# Colon cancer organoid [4] = assay: Targeting of F14 CAF-induced therapy resistance in O23 CRC organoid-stroma co-culture. Cell viability is reported with Gefitinib.
# Colon cancer organoid [5] = assay: Targeting of F14 CAF-induced therapy resistance in O23 CRC organoid-stroma co-culture. Cell viability is reported with SN-38.
SMILES,viability at 10 µM (Colon cancer organoid [1]; Concentration 10 uM),viability at 10 µM (Colon cancer organoid [2]; Concentration 10 uM),viability at 10 µM (Colon cancer organoid [3]; Concentration 10 uM),viability at 10 µM (Colon cancer organoid [4]; Concentration 10 uM),viability at 10 µM (Colon cancer organoid [5]; Concentration 10 uM),also measured
CN1CCN(c2ccnc(NCCc3ccccc3)n2)CC1 [TP-040n],192%,66.3%,177%,100%,89.4%,
CN(C)CCCOc1ccc(-c2cc(NCCCn3cccn3)nc(S(C)(=O)=O)n2)cc1,100%,65.9%,0.601%,1.76%,1.65%,
Cn1c(=O)[nH]c2cc(N3C(=O)c4cccc5c(CCCO)ccc(c45)C3=O)ccc21,92.6%,42.4%,132%,52.8%,69.9%,
O=C1c2ccc(Nc3ccc(F)cc3F)cc2CCc2ccc(OC[C@H](O)CO)cc21 [Skepinone-L],153%,56.2%,143%,72.8%,77.4%,
O=C(O)c1cc(-c2ccc(C3CCNCC3)cc2)c2ccc(-c3ccc(C(F)(F)F)cc3)cc2c1,77%,34.4%,165%,47.6%,60.3%,
Cc1c(NC(=O)c2cc(C(N)=O)nc3cc(F)ccc23)c(C(F)(F)F)nn1Cc1ccc(C(C)(C)C)cc1 [BAY-588],,,,,,viability at 1 µM (Colon cancer organoid [1]): 45.5%; viability at 1 µM (Colon cancer organoid [2]): 31.3%; viability at 1 µM (Colon cancer organoid [3]): 111%; viability at 1 µM (Colon cancer organoid [4]): 43.1%; viability at 1 µM (Colon cancer organoid [5]): 104%
CNC(=O)c1ccccc1Nc1cc(Nc2ccc(N3CCOCC3)cc2OC)ncc1C(F)(F)F [VS-4718],25.2%,5.44%,22.4%,4.5%,19.3%,
Cc1c(NC(=O)c2ccc(C(C)(C)C)cc2)cccc1-c1cn(C)c(=O)c(Nc2ccc(C(=O)N3CCOCC3)cc2)n1,82.5%,23.8%,56.1%,54%,56.9%,
Cc1sc2c(c1C)C(c1ccc(Cl)cc1)=N[C@H](CC(=O)OC(C)(C)C)c1nnc(C)n1-2,103%,55.8%,130%,72%,73.3%,
CC1=C(C)C(=O)C(C(C)(C)CC(=O)N(CCCCSC[C@H]2O[C@@H](n3cnc4c(N)ncnc43)[C@@H]3OC(C)(C)O[C@@H]32)Cc2cccc(-c3ccc(Cl)cc3)c2)=C(C)C1=O,121%,66.1%,8.34%,7.29%,9.16%,
Cc1cc(C)c(-n2ccn3nc(-c4cccnc4)cc23)cc1NC(=O)c1cc(C#N)cc(S(F)(F)(F)(F)F)c1 [BAY-826],,,,,,viability at 1 µM (Colon cancer organoid [1]): 145%; viability at 1 µM (Colon cancer organoid [2]): 58.7%; viability at 1 µM (Colon cancer organoid [3]): 102%; viability at 1 µM (Colon cancer organoid [4]): 58.2%; viability at 1 µM (Colon cancer organoid [5]): 64.2%
CCc1ccccc1C(=O)Nc1n[nH]c2c(C)c(F)c(C3C(C#N)=C(C)N(C)C(C)=C3C#N)cc12 [BAY-3827],101%,24.2%,47.4%,30.6%,14.5%,
CNC(=N)NCCC[C@H](NC(=O)[C@H](CC(C)C)NC(=O)NNC(=O)[C@H](Cc1ccccc1)NC(=O)[C@H](CO)NC(=O)[C@H](CC(N)=O)NC(=O)[C@@H](Cc1ccncc1)NC(=O)[C@H](N)Cc1ccc(O)cc1)C(=O)N[C@@H](Cc1ccccc1)C(N)=O [KISS1-305] (H-[dY][d4Pal]NSF[azaGly]L[Arg(Me)]F-NH2),119%,52.8%,97.6%,66.9%,61.3%,
Cc1ccc2[nH]c(CNCCCc3ccncc3)cc(=O)c2c1 [UCSF924NC],127%,33.3%,95.8%,37.3%,52.3%,
Cn1cncc1[C@@](O)(COc1ccc(C#N)cc1-c1ccc(OC(F)(F)F)cc1)c1ccc(C#N)cc1 [A-108],108%,47.8%,131%,69.3%,112%,
COc1ccccc1C(=O)Nc1cc2c(cc1N1CCNCC1C)n(C)c(=O)n2C (stereo not drawn),98.7%,66%,84%,56.5%,55.3%,
CNC(=O)c1cc(C(=O)NC2CC2)cn(Cc2ccccc2)c1=O [GSK620],116%,24.6%,111%,60.9%,66.8%,
CCNC(=O)c1cc2c(-c3cc(C(C)(C)O)ccc3Oc3c(C)cc(F)cc3C)cn(C)c(=O)c2[nH]1 [ABBV-744],78.2%,14.3%,135%,82%,75.1%,
COc1ccccc1S(=O)(=O)Nc1ccc2c(c1)CN(C)C(=O)N2,101%,57.5%,105%,53.9%,73.2%,

SMILES,viability at 10 µM (Colon cancer organoid [1]; Concentration 10 uM),viability at 10 µM (Colon cancer organoid [2]; Concentration 10 uM),viability at 10 µM (Colon cancer organoid [3]; Concentration 10 uM),viability at 10 µM (Colon cancer organoid [4]; Concentration 10 uM),viability at 10 µM (Colon cancer organoid [5]; Concentration 10 uM),also measured
O=C(CCCCCCNC(=O)c1cnc(N(c2ccccc2)c2ccccc2)nc1)NO [RICOLINOSTAT],141%,83%,108%,81.3%,43.7%,
Cc1cc(Nc2nccc(C)n2)cc(-c2cnc([C@@]3(O)CC[C@H](C(=O)O)C(C)(C)C3)s2)c1 [MRL-SYKi],,,,,,viability at 1 µM (Colon cancer organoid [1]): 137%; viability at 1 µM (Colon cancer organoid [2]): 32.9%; viability at 1 µM (Colon cancer organoid [3]): 127%; viability at 1 µM (Colon cancer organoid [4]): 63.4%; viability at 1 µM (Colon cancer organoid [5]): 81.4%
COc1cccc(CNC(=O)c2nc3scc(CN(C)Cc4ccccc4)c3c(=O)[nH]2)c1 [T-26f],112%,63.8%,98.9%,45.7%,67.3%,
CN(C)C(=O)Cn1cc(-c2nc(C3(c4ccc(-c5cnc(N)nc5)cc4)CC3)no2)cn1 [BI 0153],110%,82.1%,171%,48.9%,98.3%,
CN(C)C(=O)c1sc2nc(N3CCC(S(C)(=O)=O)CC3)cc(C(F)(F)F)c2c1N [BI-5026],108%,51%,83.8%,50%,79.7%,
COc1cc(-c2cn([C@H]3CCc4c(F)cccc4N(CC(F)(F)F)C3=O)nn2)ccc1-n1cnc(C)c1,108%,38.5%,86.7%,72%,69.6%,
O=C(NNS(=O)(=O)c1ccccc1)c1cc(-c2ccnnc2)ccc1F [WM-2474],77.4%,30.5%,75.6%,61.3%,54.2%,
Cn1cnc2c(F)c(Nc3ccc(Br)cc3Cl)c(C(=O)NOCCO)cc21 [SELUMETINIB],51.6%,22.1%,62.9%,27.6%,48.4%,
Cc1c(Nc2ccc(S(=O)(=O)N3CCN(C)CC3)cc2F)nc2ccc(-c3cnn(C4CC4)c3)cn2c1=O,51.6%,69.8%,153%,88.9%,85.7%,
CN1CCN(Cc2cc(NC(=O)c3ccc4c(c3)CN(c3ccccc3)CC4)cc(C(F)(F)F)c2)CC1,115%,50.8%,112%,64.5%,63.3%,
Cc1sc2c(c1C)C(c1ccc(Cl)cc1)=N[C@@H](CC(=O)NCCCCCCCCNC(=O)COc1cccc3c1C(=O)N(C1CCC(=O)NC1=O)C3=O)c1nnc(C)n1-2 (stereo partly drawn),3.56%,2.25%,6.5%,5.19%,4.21%,
CCOC(=O)Nc1cc(-c2ccc(C)c(NS(C)(=O)=O)c2)nn2c(C)nnc12,59.2%,14%,146%,63.4%,79.5%,
CCCS(=O)(=O)c1nc(NC2CC2)cc(-c2ccc3c(ccn3C3CC(C)(C)NC(C)(C)C3)c2)n1,,49.6%,,68.4%,77.1%,"Cell Viability (Colon cancer organoid [1]; Concentration 10 uM, 10 µM): 91.0371% and 136.896%; Cell Viability (Colon cancer organoid [2]; Concentration 10 uM, 10 µM): 57.1178%; Cell Viability (Colon cancer organoid [3]; Concentration 10 uM, 10 µM): 73.362% and 105.525%; Cell Viability (Colon cancer organoid [4]; Concentration 10 uM, 10 µM): 66.056%; Cell Viability (Colon cancer organoid [5]; Concentration 10 uM, 10 µM): 68.6533%"
FC(F)(F)c1ccc2c(c1)nc(-c1cccnc1)n2C1CC1 [MSD-CYP11B2-Negative-control],65.1%,32.7%,150%,69.7%,92.9%,
CN1C(=O)[C@@H](N2CCc3c(nn(Cc4ccccc4)c3Br)C2=O)COc2ccccc21 [TP-030-2],,,,,,viability at 1 µM (Colon cancer organoid [1]): 113%; viability at 1 µM (Colon cancer organoid [2]): 31.6%; viability at 1 µM (Colon cancer organoid [3]): 165%; viability at 1 µM (Colon cancer organoid [4]): 83.4%; viability at 1 µM (Colon cancer organoid [5]): 63.7%
C[C@@]1(Cc2ccc(C#N)cc2)C(=O)N(c2cc(Cl)cc(Cl)c2)c2ncc(C(=O)NC3(c4nc(C5CCC5)no4)CC3)n21 [BI 9446],80.5%,23%,80.2%,43%,66.3%,
CS(=O)(=O)N1CCCC(NC(=O)[C@H](CCC2CCCCC2)NC(=O)c2ccc(CNC(=O)c3cnc4ccccn34)cc2)C1 (stereo partly drawn) [SR-302],,,,,,viability at 1 µM (Colon cancer organoid [1]): 101%; viability at 1 µM (Colon cancer organoid [2]): 37.1%; viability at 1 µM (Colon cancer organoid [3]): 126%; viability at 1 µM (Colon cancer organoid [4]): 69.8%; viability at 1 µM (Colon cancer organoid [5]): 54.1%
CO[C@H]1CNC[C@@H](OCC2CCC(F)(F)CC2)[C@@H]1Nc1ncc(-c2cncc(C)c2)c2cc(C)c(=O)[nH]c12,78.7%,65.2%,104%,78.8%,81.8%,
